Data on one compound can be found in patent US10988485B2 (Amgen Inc., priority 2018, dated 2021).

For experiment [1], the system named is Phosphorylation of ERK1/2 in MIA PaCa-2 cells. The experiment is described as follows: Phospho-ERK1/2 MSD Assay. The class given is cell-based. Particulars: MIA PaCa-2 cells, compound 2 or 4 hours, then 10 ng/mL EGF for 10 min; read-out: p-ERK IC50 (MIA-PaCa-2) (converted). As for the experimental part: (§1) For compounds in Table 6, the following assay conditions were employed:
Phospho-ERK1/2 MSD Assay: MIA PaCa-2 (ATCC® CRL-1420™) cells were cultured in RPMI 1640 Medium (ThermoFisher Scientific 11875093) containing 10% fetal bovine serum (ThermoFisher Scientific 16000044) and 1× penicillin-streptomycin-glutamine (ThermoFisher Scientific 10378016). Sixteen hours prior to compound treatment, MIA PaCa-2 cells were seeded in 96-well cell culture plates at a density of 25,000 cells/well and incubated at 37° C., 5% CO2. A compound dose-response titration was diluted in growth media, added to appropriate wells of a cell culture plate, and then incubated at 37° C., 5% CO2 for 2 or 4 hours. Following compound treatment, cells were stimulated with 10 ng/mL EGF (Roche 11376454001) for 10 min, washed with ice-cold Dulbecco's phosphate-buffered saline, no Ca^2+ or Mg^2+ (ThermoFisher Scientific 14190144), and then lysed in RIPA buffer (50 mM Tris-HCl pH 7.5, 1% Igepal, 0.5% sodium deoxycholate, 150 mM NaCl, and 0.5% sodium dodecyl sulfate) containing protease inhibitors (Roche 4693132001) and phosphatase inhibitors (Roche 4906837001). Phosphorylation of ERK1/2 in compound-treated lysates was assayed using Phospho-ERK1/2 Whole Cell Lysate kits (Meso Scale Discovery K151DWD) according to the manufacturer's protocol. Assay plates were read on a Meso Scale Discovery Sector imager 6000, and data were analyzed using a 4-parameter logistic model to calculate IC50 values.

Experiment [2] deals with GDP-bound KRAS protein (aa 1-169), containing both G12C and C118A amino acid substitutions (Homo sapiens, UniProt P01116, C118A/G12C). The experiment is described as follows: Coupled Nucleotide Exchange Assay (SOS-mediated nucleotide exchange, AlphaScreen). The class given is biochemical. Conditions: compound pre-incubation either 5 min or 2 hours (not stated per compound); SOS and GTP added, cRAF AlphaScreen read-out. Here is the method: as §1
Coupled Nucleotide Exchange Assay: Purified GDP-bound KRAS protein (aa 1-169), containing both G12C and C118A amino acid substitutions and an N-terminal His-tag, was pre-incubated in assay buffer (25 mM HEPES pH 7.4, 10 mM MgCl2, and 0.01% Triton X-100) with a compound dose-response titration for either 5 min or 2 hours (see Table 15). Following compound pre-incubation, purified SOS protein (aa 564-1049) and GTP (Roche 10106399001) were added to the assay wells and incubated for an additional 30 min (for 5 min compound pre-incubation) or 1 hour (for 2 hour compound pre-incubation). To determine the extent of inhibition of SOS-mediated nucleotide exchange, purified GST-tagged cRAF (aa 1-149), nickel chelate AlphaLISA acceptor beads (PerkinElmer AL108R), and AlphaScreen glutathione donor beads (PerkinElmer 6765302) were added to the assay wells and incubated for 10 minutes. The assay plates were then read on a PerkinElmer EnVision Multilabel Reader, using AlphaScreen® technology, and data were analyzed using a 4-parameter logistic model to calculate IC50 values.

Sequence of GDP-bound KRAS protein (aa 1-169), containing both G12C and C118A amino acid substitutions (P01116 1-169 isoform P01116-2 G12C/C118A): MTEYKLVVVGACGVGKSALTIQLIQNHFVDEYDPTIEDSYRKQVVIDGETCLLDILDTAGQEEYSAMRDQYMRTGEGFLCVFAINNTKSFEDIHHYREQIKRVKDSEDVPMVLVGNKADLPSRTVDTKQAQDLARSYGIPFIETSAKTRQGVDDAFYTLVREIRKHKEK

`C=CC(=O)N1C[C@H](C)N(C2=NS(=O)(=O)N(c3c(N)ncnc3C(C)C)c3nc(-c4ccccc4F)c(Cl)cc32)C[C@H]1C` [Example 9]: the IC50 (usually the concentration that gives 50% inhibition) in experiment [1] was 150 nM; in experiment [2] it was 250 nM.
